Values after ≈ are worked out from the molar mass of the structure shown. Read-outs that look alike come from different tables or passages of the source. Numbered stars: 1 amine (or outer) side, 2 acyl side, 3 side chain; on linkers, the order of the positions; unused ones are H or OH. Square brackets hold non-standard residues; d marks the D form. Peptide text beside a SMILES is read from it. * marks the point of attachment. ξ: configuration not given here. X1 = NCC(O)CCC(N[*:1])C(=O)[*:2]; ΔZArg = N=C(N)NCC/C=C(\N)C(=O)O; ξDab(3-OH) = NCC(O)C(N)C(=O)O; Orn = NCCC[CH](N)C(=O)O; NH(CH2)4NH2 = NCCCCN*
Legend:
Proprionibacterium acnes = conditions: P. acnes ATCC 6919
Pseudomonas aeruginosa = conditions: for Antibacterial activity (MIC): unit not given in table (MICs in μg/mL)
[1] = test system: Staphylococcus epidermidis
P. aeruginosa ATCC 27853 = format: cell-based, Pseudomonas aeruginosa; conditions: ATCC 27853, 24 h
Method: (§1) Minimal bactericidal concentrations (MBCs) were established by extending the MIC procedure to the evaluation of bactericidal activity. After 24 hours, 10 μL were drawn from the wells, serially diluted and then spotted onto suitable agar plates. The plates were incubated at 37° C. overnight. […] All the experiments were done in triplicate.

S. aureus ATCC 13709 = assay: MBC in presence of human serum; format: cell-based, Staphylococcus aureus; conditions: for MBC S. aureus ATCC 13709: unit not given (Table 10: μg/mL)
Method: as §1
MBCs were also determined in presence of 50% and 95% (v/v) of human serum to assess protein binding.

Cytotoxicity test (MTS) = format: cell-based; conditions: human; for CC50 at 72 h: MTS; for viability at 72 h: dose of up to 100 μg/mL, read-out: cell viability
Method: The cytotoxicity of the Odilomycins A-C was investigated against Human colon adenocarcinoma (HT29) cells and Human normal lung fibroblasts (MRC-5) cells. 200 μL of the cell suspension of HT29 (human colorectal adenocarcinoma) prepared in RPMI 1640+1% L-Glutamine supplemented with 10% (v/v) fetal calf serum and 200 μL of the cell suspension of MRC5 (human lung fibroblast) prepared in Dulbecco's modified Eagle's medium supplemented with 25 mM glucose and 10% (v/v) fetal calf serum were inoculated into 96-well plates.
The inoculating cell number was 800 cells per well for HT29 and 2100 cells per well for MRC-5. The microplates were incubated at 37° C. for 24 h with 5% of CO2.
Twenty four hours later, Odilomycin A, B or C dissolved in water were added for 72 h at a final concentration from 0.78 μg/mL to 100 μg/mL in a fixed volume of water (1% final concentration). […] Experiments were done in triplicate.

S. aureus ATCC 25923 = format: cell-based, Staphylococcus aureus; conditions: ATCC 25923
Source text: Vancomycin, rifampicin, kanamycin, gentamicin, ampicillin, ciprofloxacin and tetracycline (Sigma-Aldrich) were provided as standard powders by the manufacturers.

[2] = HT29 colon adenocarcinoma cells
[3] = MRC-5 normal lung fibroblasts, MRC-5 cells

SMILES: N=C(N)NCC/C=C(\NC(=O)C(CCC(O)CN)NC(=O)C(Cc1cnc[nH]1)NC(=O)C1CCCN1C(=O)C(CCCN)NC(=O)CNC(=O)C(NC(=O)C(NC(=O)C(N)CCCCN)C(O)CN)C(O)CN)C(=O)NC(CCC(O)CN)C(=O)NCCCCN (stereo not drawn) [Odilomycin A, Lys-(3-hydroxy-2,4-diaminobutanoic acid)-(3-hydroxy-2,4-diaminobutanoic acid)-Gly-Ornithine-Pro-His-(5-hydroxylysine)-(2,3-dehydroarginine)-(5-hydroxylysine)-(1,4-diaminobutane)] (H-K[ξDab(3-OH)][ξDab(3-OH)]G[Orn]PH[X1][ΔZArg][X1]-{NH(CH2)4NH2}; configuration not given here)
- MIC (Acinetobacter baumannii): 6.25 µg/mL (≈ 4.82 µM)
- MICs (Acinetobacter baumannii): < 10 µg/mL
- MIC (Bacillus subtilis): <0.20 µg/mL
- MICs (Bacillus subtilis): < 1 µg/mL
- MIC (Enterobacter cloacae): 1.56 µg/mL (≈ 1.2 µM)
- MICs (Enterobacter cloacae): < 10 µg/mL
- MIC (Enterococcus faecalis): >50.0 µg/mL
- antibacterial activity (Enterococcus faecalis; E. faecalis): Weak or no antibacterial activity
- MIC (Enterococcus faecium): 25.0 µg/mL (≈ 19.3 µM)
- antibacterial activity (Enterococcus faecium; E. faecium): Weak or no antibacterial activity
- MIC (Haemophilus influenzae): 12.5 µg/mL (≈ 9.64 µM)
- MIC (Mannheimia haemolytica): 50.0 µg/mL (≈ 38.6 µM)
- MIC (Moraxella catarrhalis): 1.56 µg/mL (≈ 1.2 µM)
- MICs (Moraxella catarrhalis): < 10 µg/mL
- MIC (Pasteurella multocida): 25.0 µg/mL (≈ 19.3 µM)
- MIC (Proprionibacterium acnes): 3.13 µg/mL (≈ 2.41 µM)
- MIC (Pseudomonas aeruginosa): 3.12 µg/mL (≈ 2.41 µM)
- MICs (Pseudomonas aeruginosa): < 10 µg/mL
- MIC (Pseudomonas aeruginosa; P. aeruginosa ATCC 27853): 3.13 µg/mL (≈ 2.41 µM)
- Antibacterial activity (MIC) (Pseudomonas aeruginosa; P. aeruginosa multiresistant clinical isolate 5618): 6.25
- Antibacterial activity (MIC) (Pseudomonas aeruginosa; P. aeruginosa multiresistant clinical isolate 35170): >50
- Antibacterial activity (MIC) (Pseudomonas aeruginosa; P. aeruginosa multiresistant clinical isolate 42162): 25
- Antibacterial activity (MIC) (Pseudomonas aeruginosa; P. aeruginosa multiresistant clinical isolate 401681): 25
- Antibacterial activity (MIC) (Pseudomonas aeruginosa; P. aeruginosa multiresistant clinical isolate 512232): 3.12
- MIC [1]: <0.20 µg/mL
- MICs [1]: < 1 µg/mL
- MBC (P. aeruginosa ATCC 27853): 6.25 µg/mL (≈ 4.82 µM)
- effect of serum proteins on antibacterial activity (S. aureus ATCC 13709; 50% and 95% (v/v) human serum, S. aureus ATCC 13709): weakly affected
- MBC S. aureus ATCC 13709 (S. aureus ATCC 13709; Serum 0 % (v/v)): 0.78
- MBC S. aureus ATCC 13709 (S. aureus ATCC 13709; human serum 50 % (v/v)): 1.56
- MBC S. aureus ATCC 13709 (S. aureus ATCC 13709; human serum 95 % (v/v)): 1.56
- CC50 at 72 h (Cytotoxicity test (MTS); [2]): > 100 µg/mL
- viability at 72 h (Cytotoxicity test (MTS); [2]): 100%
- CC50 at 72 h (Cytotoxicity test (MTS); [3]): > 100 µg/mL
- viability at 72 h (Cytotoxicity test (MTS); [3]): 100%
- MIC antibiotic alone (S. aureus ATCC 25923): 0.39 µg/mL (≈ 0.301 µM)

Reference: US9260481B2, “Peptide derivatives as antibiotics” (priority 2011, dated 2016)
